Data on 5 molecules can be found in US20250066282A1, “NOVEL ANALOGS OF VALPROIC ACID AND METHODS OF MEDICAL TREATMENT USING THE SAME” (Cereno Scientific AB, priority 2021, published 2025).

Series [1] deals with C57BL/6 wild type mice. As to the kind of experiment: Cremaster laser-induced thrombosis assay (platelet accumulation, fibrin formation). It counts as in vivo. The conditions noted are these: cremaster arteriole laser-induced injury. The procedure: The effects of the compounds of the invention and VPA on the ability and timing of clot formation were determined. Specifically, platelet accumulation and fibrin formation in the cremaster artery in forming a non-occlusive clot were measured following laser-induced insult to the vessel in 10-12 week-old mice (C57BL/6 wild type mice purchased from Jackson Laboratories).
Valproic acid (VPA) was purchased from Sigma-Aldrich as a powder and resuspended in 0.9% Sodium Chloride (saline) to prepare a final stock solution of each compound.
To assess platelet accumulation and fibrin formation, a Zeiss Axio Examiner Z1 fluorescent multichannel intravital microscope was used. The microscope was equipped with: (1) a solid laser launch system (LaserStack; Ablate! Photoablation system, intelligent Imaging innovations), (2) a high-speed sCMOS camera, and (3) a laser ablation system (intelligent Imaging innovations, Denver, CO, USA). SlideBook 6.0 digital microscopy software for image recording and analysis was also used. An anti-platelet antibody, and an anti-fibrin antibody, both commercially available, were used for imaging purposes.
The dynamic accumulation of platelets and fibrin within thrombi at the site of the injury in vivo was evaluated in cremaster arteriole in response to laser-induced injury under intravital microscopy. Adult male mice (10-12 weeks old) were treated with 30 mg/kg and 100 mg/kg for 5 days prior to injury were anesthetized by an intraperitoneal injection of ketamine/xylazine (100 and 10 mg/kg, respectively) and the jugular vein was cannulated. A tracheal tube was inserted to facilitate breathing. The cremaster arteriole was surgically prepared and superfused with preheated bicarbonate saline buffer throughout the experiment.
DyLight 488-conjugated rat anti-mouse platelet GP1bβ antibody (0.1 μg/g; EMFRET Analytics) and Alexa Fluor 647-conjugated anti-fibrin (0.3 μg/g) were administered intravenously via a jugular vein cannula prior to vascular injury. Microcirculation was monitored and recorded under multichannel intravital microscopy.
Multiple independent thrombi (6-8 thrombi in each mouse) were induced in the arterioles (30-50 μm diameter) in each mouse by a laser ablation system. Images of thrombus formation at the site of injured arterioles were acquired in realtime under 63× water-immersion objective with a Zeiss Axio Examiner Z1 fluorescent microscope equipped with solid laser launch system (LaserStack; Intelligent Imaging Innovations) and high-speed sCMOS camera. All captured images were analyzed for the change of fluorescent intensity over the course of thrombus formation after subtracting fluorescent background using the Slidebook program. […]

The conditions of series [2]: reported by Rettie, J. Biol. Chem. 263(27):13733-13738 (1988); cited from earlier work.
Series [3] has as its system C57BL/6 wild type mice. As to the kind of experiment: Excessive bleeding assay (tail bleeding time). The format is in vivo. Conditions: tail resection 5 mm, 100 mg/kg IP once a day for five days, compared to control (FIG. 1). The procedure:
To determine the risks of excessive bleeding associated with the compounds of the present invention, the last 5 mm of the tail of mice was resected to identify the amount of time necessary for the vessel to properly clot and prevent excessive loss of blood.
10-12 weeks old C57BL/6 wild type mice were purchased from Jackson Laboratories for these experiments. Various compounds were administered to the mice via IP injection once a day at a dose of 100 mg/kg of compound for five days prior to resection.
Mice were sedated with 250 μL of ketamine solution (Ketamine (100 μL)/xylazine (50 μL) in 850 μl. Saline solution). The mice were then placed face down on a heat pad on top of the bead bath to enable the tail to be pulled into a saline-filled tube. 5 mm of the tail as cut with a scalpel and the tail was placed in a saline-filled tube and a timer started. The timer was stopped when the bleeding stopped, but the possibility of re-bleeds was observed from 10 minutes after initial bleeding stopped. If the mouse bleeds continuously for 10 minutes, the experiment was halted and the mouse was euthanized. One-way ANOVA with Dunnett's correction for multiple comparison test was performed to determine statistical significance of bleeding times.

The mark [4] stands for this setting: 100 mg/kg IP for 5 days, versus VPA (FIG. 4).

Consider `[2H]C([2H])C([2H])([2H])CC([2H])(CC([2H])([2H])C([2H])[2H])C(=O)O` [Compound Ib, 2-(Propyl-2,2,3,3-d4)pentanoic-2,4,4,5,5-d5 acid], for which, in series [1] (setting [4]), the platelet accumulation result is “consistent decrease in platelet accumulation over VPA”.
For `[2H]C([2H])([2H])CCC(CCC([2H])([2H])[2H])C(=O)O` [5,5,5,5′,5′,5′D6VPA], in series [2], the “formation of the 4-ene-VPA metabolite compared to VPA” value is “increased amount of the 4-ene-VPA metabolite”.
With `[2H]C([2H])C([2H])([2H])CC(CC([2H])([2H])C([2H])[2H])C(=O)O` [Compound Ia, 2-[(2,2,3,3-2H4)propyl](4,4,5,5-2H4)pentanoic acid], the bleeding time result in series [3] is reported as “best safety profile in terms of risk of excess bleeding”. The platelet accumulation result in series [1] (30 mg/kg IP for 5 days, versus VPA (FIG. 2)) is recorded as “consistent decrease”; in series [1] (setting [4]), “consistent decrease in platelet accumulation over VPA”. For the same molecule, the fibrin formation result in series [1] (30 mg/kg IP for 5 days, versus VPA (FIG. 3)) is “consistent decrease”.
With `[2H]C([2H])(C)CC(CC([2H])([2H])C)C(=O)O` [4,4,4′,4′-D4VPA], in series [2], the “formation of the 4-ene-VPA metabolite compared to VPA” value is listed as “considerably less formation of the 4-ene metabolite”.
`CCCC(CCC)C(=O)O` [VPA, Valproic acid]: the bleeding time result in series [3] is “significant increase in bleeding time”.
